In patent US12077503B2, “Substituted cyclic amides and their use as herbicides” (FMC CORPORATION, priority 2015, dated 2024):

What was measured:
Format in all cases: in vivo
[1] = test system: ryegrass, Italian (Italian ryegrass, Lolium multiflorum); assay: Test A postemergence
Procedure, shortened: (§1)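 In a loam soil and sand blend, planted seeds got a preemergence directed soil spray, and young plants at the one- to two-leaf stage, 2–10 cm high, got a postemergence application; ~10 d greenhouse hold; injury rated visually, 0 = none, 100 = complete control.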

Kochia (Kochia scoparia) [2] = assay: Test A postemergence
Procedure, shortened: as §1

[3] = test system: blackgrass (Alopecurus myosuroides); assay: Test A postemergence; conditions: for Blackgrass plant response rating: visual injury rating on 0 to 100 scale (0 no effect, 100 complete control)
Procedure, shortened: as §1

[4] = test system: ragweed (common ragweed, Ambrosia elatior); assay: Test A postemergence
Procedure, shortened: as §1

corn (Zea mays) = assay: Test A postemergence
Procedure, shortened: as §1

[5] = test system: pigweed (Amaranthus retroflexus); assay: Test A postemergence
Procedure, shortened: as §1

[6] = test system: giant foxtail (Setaria faberii); assay: Test A postemergence
Procedure, shortened: as §1

[7] = test system: Galium (catchweed bedstraw, Galium aparine); assay: Test A postemergence
Procedure, shortened: as §1

[8] = test system: wheat (Triticum aestivum); assay: Test A postemergence
Procedure, shortened: as §1

[9] = test system: barnyardgrass (Echinochloa crus-galli); assay: Test A postemergence; conditions: for Barnyardgrass plant response rating: visual injury rating on 0 to 100 scale (0 no effect, 100 complete control)
Procedure, shortened: as §1

[10] = test system: ryegrass, Italian (Italian ryegrass, Lolium multiflorum); assay: Test A preemergence; conditions: for Ryegrass, Italian plant response rating (0 to 100 scale, 0 is no effect, 100 is complete control): visual injury approx. 10 d
Procedure, shortened: as §1

Kochia (Kochia scoparia) [11] = assay: Test A preemergence; conditions: for Kochia plant response rating (0 to 100 scale, 0 is no effect, 100 is complete control): visual injury approx. 10 d
Procedure, shortened: as §1

[12] = test system: ragweed (common ragweed, Ambrosia elatior); assay: Test A preemergence; conditions: for Ragweed plant response rating (0 to 100 scale, 0 is no effect, 100 is complete control): visual injury approx. 10 d
Procedure, shortened: as §1

[13] = test system: pigweed (Amaranthus retroflexus); assay: Test A preemergence; conditions: for Pigweed plant response rating (0 to 100 scale, 0 is no effect, 100 is complete control): visual injury approx. 10 d
[14] = test system: giant foxtail (Setaria faberii); assay: Test A preemergence; conditions: for Foxtail, Giant plant response rating (0 to 100 scale, 0 is no effect, 100 is complete control): visual injury approx. 10 d
Procedure, shortened: as §1

[15] = test system: barnyardgrass (Echinochloa crus-galli); assay: Test A preemergence; conditions: for Barnyardgrass plant response rating (0 to 100 scale, 0 is no effect, 100 is complete control): visual injury approx. 10 d
Procedure, shortened: as §1

[16] = test system: sedge, umbrella (small-flower umbrella sedge, Cyperus difformis); assay: Test B flooded paddy test; conditions: Flood, 0 to 100 scale where 0 is no effect and 100 is complete control, 13 to 15 d
Procedure, shortened: (§2)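 2-leaf plants; pots flooded 3 cm over soil; cpd added to paddy water; depth held; greenhouse 13–15 d; visual rating vs controls, 0 = no effect, 100 = complete control.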

rice (Oryra sativa) = assay: Test B flooded paddy test; conditions: Flood, 0 to 100 scale where 0 is no effect and 100 is complete control, 13 to 15 d
Procedure, shortened: as §2

[17] = test system: ducksalad (Heteranthera limosa); assay: Test B flooded paddy test; conditions: Flood, 0 to 100 scale where 0 is no effect and 100 is complete control, 13 to 15 d
Procedure, shortened: as §2

[18] = test system: barnyardgrass (Echinochloa crus-galli); assay: Test B flooded paddy test; conditions: Flood, 0 to 100 scale where 0 is no effect and 100 is complete control, 13 to 15 d
Procedure, shortened: as §2

[19] = 125 g ai/ha, postemergence, visual rating after approx. 10 d, 0 to 100 scale (0 no effect, 100 complete control)
[20] = Postemergence, 500 g ai/ha, 0 to 100 scale where 0 is no effect and 100 is complete control
[21] = 125 g ai/ha, postemergence, approx. 10 d
[22] = 125 g ai/ha, Preemergence, visual injury after approximately 10 d, 0 to 100 scale where 0 is no effect and 100 is complete control
[23] = 500 g ai/ha, postemergence, visual injury, 0 to 100 scale (0 no effect, 100 complete control), approx. 10 d
[24] = 500 g ai/ha, preemergence, 0 to 100 scale, 0 = no effect, 100 = complete control
[25] = 125 g ai/ha, postemergence, visual injury rating on 0 to 100 scale (0 no effect, 100 complete control), approx. 10 d
[26] = 500 g ai/ha, postemergence, 0 to 100 scale, 0 no effect, 100 complete control
[27] = 125 g ai/ha, preemergence, 0 to 100 scale (0 no effect, 100 complete control)

With `O=C1NCC(c2ccc(Oc3ccccc3)cc2)C1C(=O)Nc1ccc(F)c(F)c1F` (racemic) [Compound 537] the “Plant response rating, Ryegrass, Italian” value [1, 19] was 0, the “Plant response rating, Ryegrass, Italian” value [1, 20] was 0 and the “Plant response rating, Kochia” value (Kochia (Kochia scoparia) [2]; [19]) was 0. The “Plant response rating, Kochia” value (Kochia (Kochia scoparia) [2]; [20]) was 0, the “Blackgrass plant response rating” value [3, 21] was 0 and the “Plant response rating, Blackgrass” value [3, 20] was 0. For the same compound, the “Plant response rating, Ragweed” value [4, 19] was 0, the “Plant response rating, Ragweed” value [4, 20] was 0 and the “Plant response rating, Corn” value (corn (Zea mays); [19]) was 0. For the same compound, the “Plant response rating, Corn” value (corn (Zea mays); [20]) was 0, the “Plant response rating, Pigweed” value [5, 19] was 0 and the “Plant response rating, Pigweed” value [5, 20] was 0. The “Plant response rating, Foxtail, Giant” value [6, 19] was 0, the “Plant response rating, Foxtail, Giant” value [6, 20] was 0 and the “Plant response rating, Galium” value [7, 19] was 0. The “Plant response rating, Galium” value [7, 20] was 0, the “Plant response rating, Wheat” value [8, 19] was 0 and the “Plant response rating, Wheat” value [8, 20] was 0. For the same compound, the “Barnyardgrass plant response rating” value [9, 21] was 0, the “Plant response rating, Barnyardgrass” value [9, 20] was 0 and the “Plant response rating, Ryegrass, Italian” value [10, 22] was 0. For the same compound, the “Ryegrass, Italian plant response rating (0 to 100 scale, 0 is no effect, 100 is complete control)” value ([10]; Preemergence, 500 g ai/ha) was 0, the “Plant response rating, Kochia” value (Kochia (Kochia scoparia) [11]; [22]) was 0 and the “Kochia plant response rating (0 to 100 scale, 0 is no effect, 100 is complete control)” value (Kochia (Kochia scoparia) [11]; Preemergence, 500 g ai/ha) was 0. For the same compound, the “Plant response rating, Ragweed” value [12, 22] was 0, the “Ragweed plant response rating (0 to 100 scale, 0 is no effect, 100 is complete control)” value ([12]; Preemergence, 500 g ai/ha) was 0 and the “Plant response rating, Pigweed” value [13, 22] was 0. For the same compound, the “Pigweed plant response rating (0 to 100 scale, 0 is no effect, 100 is complete control)” value ([13]; Preemergence, 500 g ai/ha) was 0, the “Plant response rating, Foxtail, Giant” value [14, 22] was 0 and the “Foxtail, Giant plant response rating (0 to 100 scale, 0 is no effect, 100 is complete control)” value ([14]; Preemergence, 500 g ai/ha) was 0. For the same compound, the “Plant response rating, Barnyardgrass” value [15, 22] was 0, the “Barnyardgrass plant response rating (0 to 100 scale, 0 is no effect, 100 is complete control)” value ([15]; Preemergence, 500 g ai/ha) was 0 and the “Plant response rating, Sedge, Umbrella” value ([16]; 500 g ai/ha) was 50. For the same compound, the “Plant response rating, Rice” value (rice (Oryra sativa); 500 g ai/ha) was 20, the “Plant response rating, Ducksalad” value ([17]; 500 g ai/ha) was 0 and the “Plant response rating, Barnyardgrass” value ([18]; 500 g ai/ha) was 30.
`Cc1ccc(C2CNC(=O)C2C(=O)Nc2cccc(F)c2F)cc1C(F)(F)F` (stereo not drawn) [Compound 642] was tested, and the “Plant response rating, Ryegrass, Italian” value [1, 19] was 40, the “Plant response rating, Ryegrass, Italian” value [1, 23] was 50 and the “Plant response rating, Kochia” value (Kochia (Kochia scoparia) [2]; [19]) was 20. For the same compound, the “Plant response rating, Kochia” value (Kochia (Kochia scoparia) [2]; [23]) was 50, the “Plant response rating, Blackgrass” value [3, 19] was 20 and the “Plant response rating, Blackgrass” value [3, 23] was 40. The “Plant response rating, Ragweed” value [4, 19] was 0, the “Plant response rating, Ragweed” value [4, 23] was 40 and the “Plant response rating, Corn” value (corn (Zea mays); [19]) was 50. The “Plant response rating, Corn” value (corn (Zea mays); [23]) was 70, the “Plant response rating, Pigweed” value [5, 19] was 0 and the “Plant response rating, Pigweed” value [5, 23] was 20. The “Plant response rating, Foxtail, Giant” value [6, 19] was 20, the “Plant response rating, Foxtail, Giant” value [6, 23] was 70 and the “Plant response rating, Galium” value [7, 19] was 50. The “Plant response rating, Galium” value [7, 23] was 70, the “Plant response rating, Wheat” value [8, 19] was 0 and the “Plant response rating, Wheat” value [8, 23] was 20. The “Plant response rating, Barnyardgrass” value [9, 19] was 70, the “Plant response rating, Barnyardgrass” value [9, 23] was 90 and the “Plant response rating, Ryegrass, Italian” value [10, 22] was 50. For the same compound, the “Plant response rating, Ryegrass, Italian” value [10, 24] was 80, the “Plant response rating, Kochia” value (Kochia (Kochia scoparia) [11]; [22]) was 40 and the “Plant response rating, Kochia” value (Kochia (Kochia scoparia) [11]; [24]) was 60. The “Plant response rating, Ragweed” value [12, 22] was 0, the “Plant response rating, Ragweed” value [12, 24] was 50 and the “Plant response rating, Pigweed” value [13, 22] was 50. The “Plant response rating, Pigweed” value [13, 24] was 60, the “Plant response rating, Foxtail, Giant” value [14, 22] was 90 and the “Plant response rating, Foxtail, Giant” value [14, 24] was 90. For the same compound, the “Plant response rating, Barnyardgrass” value [15, 22] was 90, the “Plant response rating, Barnyardgrass” value [15, 24] was 90 and the “Plant response rating, Sedge, Umbrella” value ([16]; 250 g ai/ha) was 0. For the same compound, the “Plant response rating, Rice” value (rice (Oryra sativa); 250 g ai/ha) was 30, the “Plant response rating, Ducksalad” value ([17]; 250 g ai/ha) was 100 and the “Plant response rating, Barnyardgrass” value ([18]; 250 g ai/ha) was 30.
For `O=C1NCC(c2ccc(Br)cc2)C1C(=O)Nc1ccc(F)cc1F` (stereo not drawn) [Compound 447], the “Ryegrass, Italian plant response rating” value [1, 25] was 0, the “Plant response rating, Ryegrass, Italian” value [1, 26] was 20 and the “Kochia plant response rating” value (Kochia (Kochia scoparia) [2]; [25]) was 0. The “Plant response rating, Kochia” value (Kochia (Kochia scoparia) [2]; [26]) was 40, the “Blackgrass plant response rating” value [3, 21] was 0 and the “Plant response rating, Blackgrass” value [3, 26] was 30. For the same compound, the “Ragweed plant response rating” value [4, 25] was 0, the “Plant response rating, Ragweed” value [4, 26] was 0 and the “Corn plant response rating” value (corn (Zea mays); [25]) was 0. The “Plant response rating, Corn” value (corn (Zea mays); [26]) was 0, the “Pigweed plant response rating” value [5, 25] was 0 and the “Plant response rating, Pigweed” value [5, 26] was 30. The “Foxtail, Giant plant response rating” value [6, 25] was 80, the “Plant response rating, Foxtail, Giant” value [6, 26] was 80 and the “Galium plant response rating” value [7, 25] was 40. For the same compound, the “Plant response rating, Galium” value [7, 26] was 50, the “Wheat plant response rating” value [8, 25] was 0 and the “Plant response rating, Wheat” value [8, 26] was 0. For the same compound, the “Barnyardgrass plant response rating” value [9, 21] was 80, the “Plant response rating, Barnyardgrass” value [9, 26] was 80 and the “Plant response rating, Ryegrass, Italian” value [10, 27] was 20. The “Ryegrass, Italian plant response rating (0 to 100 scale, 0 is no effect, 100 is complete control)” value ([10]; Preemergence, 500 g ai/ha) was 30, the “Plant response rating, Kochia” value (Kochia (Kochia scoparia) [11]; [27]) was 50 and the “Kochia plant response rating (0 to 100 scale, 0 is no effect, 100 is complete control)” value (Kochia (Kochia scoparia) [11]; Preemergence, 500 g ai/ha) was 50. The “Plant response rating, Ragweed” value [12, 27] was 0, the “Ragweed plant response rating (0 to 100 scale, 0 is no effect, 100 is complete control)” value ([12]; Preemergence, 500 g ai/ha) was 0 and the “Plant response rating, Pigweed” value [13, 27] was 30. For the same compound, the “Pigweed plant response rating (0 to 100 scale, 0 is no effect, 100 is complete control)” value ([13]; Preemergence, 500 g ai/ha) was 30, the “Plant response rating, Foxtail, Giant” value [14, 27] was 90 and the “Foxtail, Giant plant response rating (0 to 100 scale, 0 is no effect, 100 is complete control)” value ([14]; Preemergence, 500 g ai/ha) was 90. The “Plant response rating, Barnyardgrass” value [15, 27] was 70, the “Barnyardgrass plant response rating (0 to 100 scale, 0 is no effect, 100 is complete control)” value ([15]; Preemergence, 500 g ai/ha) was 90 and the “Plant response rating, Sedge, Umbrella” value ([16]; 250 g ai/ha) was 0. For the same compound, the “Plant response rating, Rice” value (rice (Oryra sativa); 250 g ai/ha) was 0, the “Plant response rating, Ducksalad” value ([17]; 250 g ai/ha) was 98 and the “Plant response rating, Barnyardgrass” value ([18]; 250 g ai/ha) was 40.
